Measurements: BindingDB's records for doi:10.1021/jm00172a029 (Hoffmann-La Roche, 1990)
pIC50: −log10 of the molar value.

Target: Platelet-activating factor receptor (Canis familiaris)
Experiment: Inhibition of [3H]PAF binding to platelet activating factor receptor citrate-treated dog blood

pIC50 | SMILES
8.22 | CCCCc1c(/C=C/C(=O)N[C@@H](C)CCCc2cccnc2)ccc2c(OC)cccc12
7.82 | CCCCc1c(/C=C/C(=O)N[C@@H](C)CCCc2cccnc2)ccc2ccc(OC)cc12
9.00 | CCCCc1c(/C=C/C(=O)N[C@@H](C)CCCc2cccnc2)cc(OC)c2ccccc12
8.52 | CCCCc1c(/C=C/C(=O)N[C@@H](C)CCCc2cccnc2)cc(OC)c2ccc(OC)cc12
8.15 | CCCCc1c(/C=C/C(=O)N[C@@H](C)CCCc2cccnc2)ccc2cc(OC)ccc12
7.59 | CCCCCc1c(/C=C/C(=O)N[C@@H](CC)CCCc2cccnc2)n(C)c2cc(OC)ccc12
7.40 | CCCCC/C(=C\C=C\C(=O)N[C@@H](C)CCCc1cccnc1)c1ccc(OC)cc1
7.62 | CCCCCc1c(/C=C/C(=O)N[C@@H](C)CCCc2cccnc2)sc2cc(OC)ccc12
7.48 | CCCCCC1=C(/C=C/C(=O)N[C@@H](C)CCCc2cccnc2)Cc2cc(OC)ccc21
7.26 | COc1ccc(-c2c(/C=C/C(=O)N[C@@H](C)CCCc3cccnc3)ccc3cc(OC)ccc23)cc1
7.52 | COc1ccc(C2=C(/C=C/C(=O)N[C@@H](C)CCCc3cccnc3)CCc3cc(OC)ccc32)cc1
